Where two headings read alike, the source gives them in different places.
Key:
liver = conditions: cited from earlier work
rodent = conditions: classification of the substance (C+/C−); cited from earlier work
[1] = classification of the substance (M+/M−); cited from earlier work
[2] = test system: mRNA expressed from the genes (A) to (D) in rat liver; test: Behavior of genes (mRNA expression level, oligo-DNA microarray) in rat liver after 28-day oral administration; format: in vivo; conditions: for Behavior of gene caused by administration of chemical substance, Gene No. 4846 / Behavior of gene caused by administration of chemical substance, Gene No. 2026 / Behavior of gene caused by administration of chemical substance, Gene No. 4218 / Behavior of gene caused by administration of chemical substance, Gene No. 6182 / Behavior of gene caused by administration of chemical substance, Gene No. 5600: gene group (A); for Behavior of gene caused by administration of chemical substance, Gene No. 4846: Unigene No. Rn.144554; for Behavior of gene caused by administration of chemical substance, Gene No. 2026 / Behavior of gene caused by administration of chemical substance, Gene No. 4218: Unigene No. Rn.167075; for Behavior of gene caused by administration of chemical substance, Gene No. 6182: Unigene No. Rn.5834; for Behavior of gene caused by administration of chemical substance, Gene No. 5600: Unigene No. Rn.9836; for Behavior of gene caused by administration of chemical substance, Gene No. 1494 / Behavior of gene caused by administration of chemical substance, Gene No. 2045 / Behavior of gene caused by administration of chemical substance, Gene No. 2203: gene group (B); for Behavior of gene caused by administration of chemical substance, Gene No. 1494: Unigene No. Rn.1430; for Behavior of gene caused by administration of chemical substance, Gene No. 2045: Unigene No. Rn.19329; for Behavior of gene caused by administration of chemical substance, Gene No. 2203: Unigene No. Rn.21240; for Behavior of gene caused by administration of chemical substance, Gene No. 533 / Behavior of gene caused by administration of chemical substance, Gene No. 725 / Behavior of gene caused by administration of chemical substance, Gene No. 1163 / Behavior of gene caused by administration of chemical substance, Gene No. 4973 / Behavior of gene caused by administration of chemical substance, Gene No. 4095 / Behavior of gene caused by administration of chemical substance, Gene No. 1334 / Behavior of gene caused by administration of chemical substance, Gene No. 6620 / Behavior of gene caused by administration of chemical substance, Gene No. 6303 / Behavior of gene caused by administration of chemical substance, Gene No. 5878 / Behavior of gene caused by administration of chemical substance, Gene No. 1131 / Behavior of gene caused by administration of chemical substance, Gene No. 1562 / Behavior of gene caused by administration of chemical substance, Gene No. 1741 / Behavior of gene caused by administration of chemical substance, Gene No. 893 / Behavior of gene caused by administration of chemical substance, Gene No. 6026 / Behavior of gene caused by administration of chemical substance, Gene No. 154 / Behavior of gene caused by administration of chemical substance, Gene No. 1993 / Behavior of gene caused by administration of chemical substance, Gene No. 813 / Behavior of gene caused by administration of chemical substance, Gene No. 2494 / Behavior of gene caused by administration of chemical substance, Gene No. 2546 / Behavior of gene caused by administration of chemical substance, Gene No. 3776 / Behavior of gene caused by administration of chemical substance, Gene No. 3929 / Behavior of gene caused by administration of chemical substance, Gene No. 1119 / Behavior of gene caused by administration of chemical substance, Gene No. 6742 / Behavior of gene caused by administration of chemical substance, Gene No. 5634: gene group (C); for Behavior of gene caused by administration of chemical substance, Gene No. 533: Unigene No. Rn.106184; for Behavior of gene caused by administration of chemical substance, Gene No. 725: Unigene No. Rn.108075; for Behavior of gene caused by administration of chemical substance, Gene No. 1163: Unigene No. Rn.11766; for Behavior of gene caused by administration of chemical substance, Gene No. 4973: Unigene No. Rn.118529; for Behavior of gene caused by administration of chemical substance, Gene No. 4095: Unigene No. Rn.119024; for Behavior of gene caused by administration of chemical substance, Gene No. 1334 / Behavior of gene caused by administration of chemical substance, Gene No. 6620: Unigene No. Rn.120914; for Behavior of gene caused by administration of chemical substance, Gene No. 6303: Unigene No. Rn.123063; for Behavior of gene caused by administration of chemical substance, Gene No. 5878: Unigene No. Rn.143213; for Behavior of gene caused by administration of chemical substance, Gene No. 1131: Unigene No. Rn.144946; for Behavior of gene caused by administration of chemical substance, Gene No. 1562: Unigene No. Rn.14744; for Behavior of gene caused by administration of chemical substance, Gene No. 1741: Unigene No. Rn.1647; for Behavior of gene caused by administration of chemical substance, Gene No. 893: Unigene No. Rn.164817; for Behavior of gene caused by administration of chemical substance, Gene No. 6026: Unigene No. Rn.167685; for Behavior of gene caused by administration of chemical substance, Gene No. 154: Unigene No. Rn.185941; for Behavior of gene caused by administration of chemical substance, Gene No. 1993: Unigene No. Rn.18728; for Behavior of gene caused by administration of chemical substance, Gene No. 813: Unigene No. Rn.201760; for Behavior of gene caused by administration of chemical substance, Gene No. 2494: Unigene No. Rn.23969; for Behavior of gene caused by administration of chemical substance, Gene No. 2546: Unigene No. Rn.24561; for Behavior of gene caused by administration of chemical substance, Gene No. 3776: Unigene No. Rn.43232; for Behavior of gene caused by administration of chemical substance, Gene No. 3929: Unigene No. Rn.4620; for Behavior of gene caused by administration of chemical substance, Gene No. 1119: Unigene No. Rn.9757; for Behavior of gene caused by administration of chemical substance, Gene No. 6742: Unigene No. Rn.9779; for Behavior of gene caused by administration of chemical substance, Gene No. 5634: Unigene No. Rn.9862; for Behavior of gene caused by administration of chemical substance, Gene No. 5726: gene group (D), Unigene No. Rn.9939
Method in brief: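 Liver mRNA measured by oligo-DNA microarray after 28 days of once-daily oral gavage in 5-week-old male F344 rats (n=4 per group), with vehicle controls given equal solvent volume. Significance threshold: 1.5-fold up or down versus control, with changes opposite in direction to other carcinogens counted as not significant.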

## O=C(O)C(Cl)(Cl)Cl [TS051, Trichloroacetic acid]
liver; classification of the substance (Cr+/Cr−)
  Liver carcinogenicity: Cr−
rodent
  Carcinogenicity: C+
[1]
  Mutagenicity by Ames test: M−
[2]; mRNA vs vehicle control group
  Behavior of gene caused by administration of chemical substance, Gene No. 4846: −
  Behavior of gene caused by administration of chemical substance, Gene No. 2026: −
  Behavior of gene caused by administration of chemical substance, Gene No. 4218: −
  Behavior of gene caused by administration of chemical substance, Gene No. 6182: −
  Behavior of gene caused by administration of chemical substance, Gene No. 5600: −
  Behavior of gene caused by administration of chemical substance, Gene No. 1494: −
  Behavior of gene caused by administration of chemical substance, Gene No. 2045: −
  Behavior of gene caused by administration of chemical substance, Gene No. 2203: −
  Behavior of gene caused by administration of chemical substance, Gene No. 533: −
  Behavior of gene caused by administration of chemical substance, Gene No. 725: +
  Behavior of gene caused by administration of chemical substance, Gene No. 1163: −
  Behavior of gene caused by administration of chemical substance, Gene No. 4973: +
  Behavior of gene caused by administration of chemical substance, Gene No. 4095: +
  Behavior of gene caused by administration of chemical substance, Gene No. 1334: −
  Behavior of gene caused by administration of chemical substance, Gene No. 6620: −
  Behavior of gene caused by administration of chemical substance, Gene No. 6303: −
  Behavior of gene caused by administration of chemical substance, Gene No. 5878: −
  Behavior of gene caused by administration of chemical substance, Gene No. 1131: −
  Behavior of gene caused by administration of chemical substance, Gene No. 1562: −
  Behavior of gene caused by administration of chemical substance, Gene No. 1741: −
  Behavior of gene caused by administration of chemical substance, Gene No. 893: −
  Behavior of gene caused by administration of chemical substance, Gene No. 6026: −
  Behavior of gene caused by administration of chemical substance, Gene No. 154: −
  Behavior of gene caused by administration of chemical substance, Gene No. 1993: −
  Behavior of gene caused by administration of chemical substance, Gene No. 813: −
  Behavior of gene caused by administration of chemical substance, Gene No. 2494: −
  Behavior of gene caused by administration of chemical substance, Gene No. 2546: −
  Behavior of gene caused by administration of chemical substance, Gene No. 3776: −
  Behavior of gene caused by administration of chemical substance, Gene No. 3929: −
  Behavior of gene caused by administration of chemical substance, Gene No. 1119: −
  Behavior of gene caused by administration of chemical substance, Gene No. 6742: −
  Behavior of gene caused by administration of chemical substance, Gene No. 5634: −
  Behavior of gene caused by administration of chemical substance, Gene No. 5726: +

## O=C(OC[C@H]1O[C@@H](OC(=O)c2cc(O)c(O)c(OC(=O)c3cc(O)c(O)c(O)c3)c2)[C@H](OC(=O)c2cc(O)c(O)c(OC(=O)c3cc(O)c(O)c(O)c3)c2)[C@@H](OC(=O)c2cc(O)c(O)c(OC(=O)c3cc(O)c(O)c(O)c3)c2)[C@@H]1OC(=O)c1cc(O)c(O)c(OC(=O)c2cc(O)c(O)c(O)c2)c1)c1cc(O)c(O)c(OC(=O)c2cc(O)c(O)c(O)c2)c1 [TS052, Tannic acid]
liver; in vivo
  Liver carcinogenicity: Cr+
rodent
  Carcinogenicity: C+
[1]
  Mutagenicity by Ames test: M−
[2]
  Behavior of gene caused by administration of chemical substance, Gene No. 4846: −
  Behavior of gene caused by administration of chemical substance, Gene No. 2026: −
  Behavior of gene caused by administration of chemical substance, Gene No. 4218: −
  Behavior of gene caused by administration of chemical substance, Gene No. 6182: −
  Behavior of gene caused by administration of chemical substance, Gene No. 5600: −
  Behavior of gene caused by administration of chemical substance, Gene No. 1494: −
  Behavior of gene caused by administration of chemical substance, Gene No. 2045: −
  Behavior of gene caused by administration of chemical substance, Gene No. 2203: +
  Behavior of gene caused by administration of chemical substance, Gene No. 533: −
  Behavior of gene caused by administration of chemical substance, Gene No. 725: −
  Behavior of gene caused by administration of chemical substance, Gene No. 1163: +
  Behavior of gene caused by administration of chemical substance, Gene No. 4973: −
  Behavior of gene caused by administration of chemical substance, Gene No. 4095: −
  Behavior of gene caused by administration of chemical substance, Gene No. 1334: −
  Behavior of gene caused by administration of chemical substance, Gene No. 6620: −
  Behavior of gene caused by administration of chemical substance, Gene No. 6303: −
  Behavior of gene caused by administration of chemical substance, Gene No. 5878: −
  Behavior of gene caused by administration of chemical substance, Gene No. 1131: −
  Behavior of gene caused by administration of chemical substance, Gene No. 1562: −
  Behavior of gene caused by administration of chemical substance, Gene No. 1741: −
  Behavior of gene caused by administration of chemical substance, Gene No. 893: −
  Behavior of gene caused by administration of chemical substance, Gene No. 6026: −
  Behavior of gene caused by administration of chemical substance, Gene No. 154: −
  Behavior of gene caused by administration of chemical substance, Gene No. 1993: −
  Behavior of gene caused by administration of chemical substance, Gene No. 813: −
  Behavior of gene caused by administration of chemical substance, Gene No. 2494: −
  Behavior of gene caused by administration of chemical substance, Gene No. 2546: −
  Behavior of gene caused by administration of chemical substance, Gene No. 3776: −
  Behavior of gene caused by administration of chemical substance, Gene No. 3929: −
  Behavior of gene caused by administration of chemical substance, Gene No. 1119: −
  Behavior of gene caused by administration of chemical substance, Gene No. 6742: −
  Behavior of gene caused by administration of chemical substance, Gene No. 5634: −
  Behavior of gene caused by administration of chemical substance, Gene No. 5726: −

From patent publication US20110039721A1, “METHOD FOR PREDICTION ABOUT CARCINOGENICITY OF SUBSTANCE IN RODENT” (Chemicals Evaluation and Research Institute, priority 2007, published 2011)
